Data from patent publication US12404295B2, “(Hetero)aryl-methyl-thio-beta-D-galactopyranoside derivatives” (Idorsia Pharmaceuticals Ltd, priority 2019, dated 2025).
Where two headings read alike, the source gives them in different places.

How the values were obtained:
human Gal-1 (hGal-1) = human Gal-1 (hGal-1) (Homo sapiens (Human), UniProt P09382); experiment: competitive binding assay: biotinylated hGal-1 binding to microplate-adsorbed asialofetuin (ASF); conditions: Table 15; read-out: IC50 (Galectin-1 inhibition)
human Gal-1 (hGal-1), sequence (P09382 whole entry): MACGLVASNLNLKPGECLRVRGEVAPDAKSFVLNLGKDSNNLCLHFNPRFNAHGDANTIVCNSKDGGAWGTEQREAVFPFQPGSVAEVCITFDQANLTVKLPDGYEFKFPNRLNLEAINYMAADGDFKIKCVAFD
Outline: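 Biotinylated human Gal-1 (300-1000 ng/mL) competes with serially diluted compound for binding to ASF-coated plates, 3 h at 4° C. Bound protein detected with streptavidin-peroxidase and ABTS substrate (spectrophotometric). IC50 given as mean of several measurements.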

human Gal-3 (hGal-3) = human Gal-3 (hGal-3) (Homo sapiens (Human), UniProt P17931); experiment: competitive binding assay: biotinylated hGal-3 binding to microplate-adsorbed asialofetuin (ASF)
human Gal-3 (hGal-3), sequence (P17931 whole entry): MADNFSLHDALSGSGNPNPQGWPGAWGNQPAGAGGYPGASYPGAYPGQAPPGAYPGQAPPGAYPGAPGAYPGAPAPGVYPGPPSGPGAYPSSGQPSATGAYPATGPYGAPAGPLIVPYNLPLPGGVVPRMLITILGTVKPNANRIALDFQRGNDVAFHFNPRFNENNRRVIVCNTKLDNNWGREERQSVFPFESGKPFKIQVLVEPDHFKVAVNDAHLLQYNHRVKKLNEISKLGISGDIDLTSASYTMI
Outline: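 Competition of compounds with biotinylated human Gal-3 for asialofetuin-coated plates, 3 hours at 4° C. Bound Gal-3 detected with streptavidin-peroxidase (80 ng/mL, 1 hour, 4° C) and ABTS substrate. IC50 reported as the mean of several measurements.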

[1] = Table 11, read-out: IC50 (Gal-3 inhibition)
[2] = Gal-3 inhibition, binding of biotinylated hGal-3 to ASF, mean values, read-out: IC50

| SMILES | IC50 (human Gal-1 (hGal-1)) [nM] | IC50 (human Gal-3 (hGal-3); [1]) [nM] | IC50 (human Gal-3 (hGal-3); [2]) [nM] |
| --- | --- | --- | --- |
| CO[C@@H]1[C@@H](n2cc(-c3cc(F)c(F)c(F)c3)nn2)[C@@H](O)[C@@H](CO)O[C@H]1SC(c1nc(Cl)ccc1Cl)C1(O)CCC(F)(F)CC1 (stereo partly drawn) [Example 2.44.144.I., (2R,3R,4S,5R,6S)-6-(((3,6-Dichloropyridin-2-yl)(4,4-difluoro-1-hydroxycyclohexyl)methyl)thio)-2-(hydroxymethyl)-5-methoxy-4-(4-(3,4,5-trifluorophenyl)-1H-1,2,3-triazol-1-yl)tetrahydro-2H-pyran-3-ol] | 4160 | 250 |  |
| CO[C@@H]1[C@@H](n2cc(-c3cc(F)c(F)c(F)c3)nn2)[C@@H](O)[C@@H](CO)O[C@H]1S[C@H](c1noc(C2CC2)c1C)C1(O)CCC(F)(F)CC1 [Example 2.44.145R.I., (2R,3R,4S,5R,6S)-6-(((R)-(5-Cyclopropyl-4-methylisoxazol-3-yl)(4,4-difluoro-1-hydroxycyclohexyl)methyl)thio)-2-(hydroxymethyl)-5-methoxy-4-(4-(3,4,5-trifluorophenyl)-1H-1,2,3-triazol-1-yl)tetrahydro-2H-pyran-3-ol] | 1200 | 250 |  |
| CO[C@@H]1[C@@H](n2cc(-c3cc(F)c(F)c(F)c3)nn2)[C@@H](O)[C@@H](CO)O[C@H]1S[C@@H](c1noc(C2CC2)c1C)C1(O)CCC(F)(F)CC1 [Example 2.44.145S.I., (2R,3R,4S,5R,6S)-6-(((S)-(5-Cyclopropyl-4-methylisoxazol-3-yl)(4,4-difluoro-1-hydroxycyclohexyl)methyl)thio)-2-(hydroxymethyl)-5-methoxy-4-(4-(3,4,5-trifluorophenyl)-1H-1,2,3-triazol-1-yl)tetrahydro-2H-pyran-3-ol] | 31000 | 11200 |  |
| CO[C@@H]1[C@@H](n2cc(-c3cc(F)c(F)c(F)c3)nn2)[C@@H](O)[C@@H](CO)O[C@H]1SC(c1nccc(C(F)(F)F)c1C)C1(O)CCC(F)(F)CC1 (stereo partly drawn) [Example 2.44.147.I., (2R,3R,4S,5R,6S)-6-(((4,4-Difluoro-1-hydroxycyclohexyl)(3-methyl-4-(trifluoromethyl)pyridin-2-yl)methyl)thio)-2-(hydroxymethyl)-5-methoxy-4-(4-(3,4,5-trifluorophenyl)-1H-1,2,3-triazol-1-yl)tetrahydro-2H-pyran-3-ol] | 1240 | 240 |  |
| CO[C@@H]1[C@@H](n2cc(-c3cc(F)c(F)c(F)c3)nn2)[C@@H](O)[C@@H](CO)O[C@H]1S[C@@H](c1nccc(C(F)(F)F)c1C)C1(O)CCC(F)(F)CC1 [Example 2.44.147S.I., (2R,3R,4S,5R,6S)-6-(((S)-(4,4-Difluoro-1-hydroxycyclohexyl)(3-methyl-4-(trifluoromethyl)pyridin-2-yl)methyl)thio)-2-(hydroxymethyl)-5-methoxy-4-(4-(3,4,5-trifluorophenyl)-1H-1,2,3-triazol-1-yl)tetrahydro-2H-pyran-3-ol] | 31800 | 5300 |  |
| OC[C@H]1O[C@@H](SC(c2ccccc2C(F)(F)F)C2(O)CCNCC2)[C@H](O)[C@@H](n2cc(-c3cc(F)c(F)c(F)c3)nn2)[C@H]1O (stereo partly drawn) [Example 2.45.112., (2R,3R,4S,5R,6S)-2-(Hydroxymethyl)-6-(((4-hydroxypiperidin-4-yl)(2-(trifluoromethyl)phenyl)methyl)thio)-4-(4-(3,4,5-trifluorophenyl)-1H-1,2,3-triazol-1-yl)tetrahydro-2H-pyran-3,5-diol] | 460 |  | 130 |
| CS(=O)(=O)N1CCC(O)([C@H](S[C@@H]2O[C@H](CO)[C@H](O)[C@H](n3cc(-c4cc(F)c(F)c(F)c4)nn3)[C@H]2O)c2ccccc2C(F)(F)F)CC1 [Example 2.47.112R., (2S,3R,4S,5R,6R)-2-(((R)-(4-Hydroxy-1-(methylsulfonyl)piperidin-4-yl)(2-(trifluoromethyl)phenyl)methyl)thio)-6-(hydroxymethyl)-4-(4-(3,4,5-trifluorophenyl)-1H-1,2,3-triazol-1-yl)tetrahydro-2H-pyran-3,5-diol] | 120 |  | 30 |
| CS(=O)(=O)N1CCC(O)([C@@H](S[C@@H]2O[C@H](CO)[C@H](O)[C@H](n3cc(-c4cc(F)c(F)c(F)c4)nn3)[C@H]2O)c2ccccc2C(F)(F)F)CC1 [Example 2.47.112S., (2S,3R,4S,5R,6R)-2-(((S)-(4-Hydroxy-1-(methylsulfonyl)piperidin-4-yl)(2-(trifluoromethyl)phenyl)methyl)thio)-6-(hydroxymethyl)-4-(4-(3,4,5-trifluorophenyl)-1H-1,2,3-triazol-1-yl)tetrahydro-2H-pyran-3,5-diol] | 17500 |  | 2820 |

Continued, values first:

| IC50 (human Gal-1 (hGal-1)) [nM] | IC50 (human Gal-3 (hGal-3); [1]) [nM] | IC50 (human Gal-3 (hGal-3); [2]) [nM] | SMILES |
| --- | --- | --- | --- |
| 9770 | 9970 |  | CO[C@@H]1[C@@H](n2cc(-c3cc(F)c(F)c(F)c3)nn2)[C@@H](O)[C@@H](CO)O[C@H]1S[C@@H](c1nccc(Cl)c1Cl)C1(O)CCC(F)(F)CC1 [Example 2.44.143S.I., (2R,3R,4S,5R,6S)-6-(((S)-(3,4-Dichloropyridin-2-yl)(4,4-difluoro-1-hydroxycyclohexyl)methyl)thio)-2-(hydroxymethyl)-5-methoxy-4-(4-(3,4,5-trifluorophenyl)-1H-1,2,3-triazol-1-yl)tetrahydro-2H-pyran-3-ol] |
| 1260 | 710 |  | CO[C@@H]1[C@@H](n2cc(-c3cc(F)c(F)c(F)c3)nn2)[C@@H](O)[C@@H](CO)O[C@H]1SC(c1noc(C2CC2)c1C)C1(O)CCC(F)(F)CC1 (stereo partly shown) [Example 2.44.145.I.] |
| 170 | 120 |  | CCCc1onc(C(S[C@@H]2O[C@H](CO)[C@H](O)[C@H](n3cc(-c4cc(F)c(F)c(F)c4)nn3)[C@H]2OC)C2(O)CCC(F)(F)CC2)c1CC (stereo partly drawn) [Example 2.44.146.I., (2R,3R,4S,5R,6S)-6-(((4,4-Difluoro-1-hydroxycyclohexyl)(4-ethyl-5-propylisoxazol-3-yl)methyl)thio)-2-(hydroxymethyl)-5-methoxy-4-(4-(3,4,5-trifluorophenyl)-1H-1,2,3-triazol-1-yl)tetrahydro-2H-pyran-3-ol] |
| 760 | 190 |  | CO[C@@H]1[C@@H](n2cc(-c3cc(F)c(F)c(F)c3)nn2)[C@@H](O)[C@@H](CO)O[C@H]1S[C@H](c1nccc(C(F)(F)F)c1C)C1(O)CCC(F)(F)CC1 [Example 2.44.147R.I., (2R,3R,4S,5R,6S)-6-(((R)-(4,4-Difluoro-1-hydroxycyclohexyl)(3-methyl-4-(trifluoromethyl)pyridin-2-yl)methyl)thio)-2-(hydroxymethyl)-5-methoxy-4-(4-(3,4,5-trifluorophenyl)-1H-1,2,3-triazol-1-yl)tetrahydro-2H-pyran-3-ol] |
| 3040 | 240 |  | CO[C@@H]1[C@@H](n2cc(-c3cc(F)c(F)c(F)c3)nn2)[C@@H](O)[C@@H](CO)O[C@H]1S[C@H](c1nc(C)ccc1Cl)C1(O)CCC(F)(F)CC1 [Example 2.44.148R.I., (2R,3R,4S,5R,6S)-6-(((R)-(3-Chloro-6-methylpyridin-2-yl)(4,4-difluoro-1-hydroxycyclohexyl)methyl)thio)-2-(hydroxymethyl)-5-methoxy-4-(4-(3,4,5-trifluorophenyl)-1H-1,2,3-triazol-1-yl)tetrahydro-2H-pyran-3-ol] |
| 31000 | 6990 |  | CO[C@@H]1[C@@H](n2cc(-c3cc(F)c(F)c(F)c3)nn2)[C@@H](O)[C@@H](CO)O[C@H]1S[C@@H](c1nc(C)ccc1Cl)C1(O)CCC(F)(F)CC1 [Example 2.44.148S.I., (2R,3R,4S,5R,6S)-6-(((S)-(3-Chloro-6-methylpyridin-2-yl)(4,4-difluoro-1-hydroxycyclohexyl)methyl)thio)-2-(hydroxymethyl)-5-methoxy-4-(4-(3,4,5-trifluorophenyl)-1H-1,2,3-triazol-1-yl)tetrahydro-2H-pyran-3-ol] |
| 2800 | 400 |  | CO[C@@H]1[C@@H](n2cc(-c3cc(F)c(F)c(F)c3)nn2)[C@@H](O)[C@@H](CO)O[C@H]1SC(c1nc(C)ccc1C)C1(O)CCC(F)(F)CC1 (stereo partly drawn) [Example 2.44.149.I., (2R,3R,4S,5R,6S)-6-(((4,4-Difluoro-1-hydroxycyclohexyl)(3,6-dimethylpyridin-2-yl)methyl)thio)-2-(hydroxymethyl)-5-methoxy-4-(4-(3,4,5-trifluorophenyl)-1H-1,2,3-triazol-1-yl)tetrahydro-2H-pyran-3-ol] |
| 270 |  | 50 | CNS(=O)(=O)N1CCC(O)(C(S[C@@H]2O[C@H](CO)[C@H](O)[C@H](n3cc(-c4cc(F)c(F)c(F)c4)nn3)[C@H]2O)c2ccccc2C(F)(F)F)CC1 (stereo partly drawn) [Example 2.46.112., 4-((((2S,3R,4S,5R,6R)-3,5-Dihydroxy-6-(hydroxymethyl)-4-(4-(3,4,5-trifluorophenyl)-1H-1,2,3-triazol-1-yl)tetrahydro-2H-pyran-2-yl)thio)(2-(trifluoromethyl)phenyl)methyl)-4-hydroxy-N-methylpiperidine-1-sulfonamide] |
| 750 |  | 220 | CC(=O)N1CCC(O)(C(S[C@@H]2O[C@H](CO)[C@H](O)[C@H](n3cc(-c4cc(F)c(F)c(F)c4)nn3)[C@H]2O)c2ccccc2C(F)(F)F)CC1 (stereo partly drawn) [Example 2.48.112., 1-(4-((((2S,3R,4S,5R,6R)-3,5-Dihydroxy-6-(hydroxymethyl)-4-(4-(3,4,5-trifluorophenyl)-1H-1,2,3-triazol-1-yl)tetrahydro-2H-pyran-2-yl)thio)(2-(trifluoromethyl)phenyl)methyl)-4-hydroxypiperidin-1-yl)ethan-1-one] |
